Data on one compound can be found in publication PMC6270290, “Synthesis of Bistetrahydroquinolines as Potential Anticholinesterasic Agents by Double Diels-Alder Reactions” (Molecules, 2013).

The test deals with acetylcholinesterase (AChE) (Electrophorus electricus, UniProt O42275). The test is described as follows: Ellman colorimetric assay, acetylthiocholine hydrolysis. Format: biochemical.
Chain of acetylcholinesterase (AChE) (O42275 24-633): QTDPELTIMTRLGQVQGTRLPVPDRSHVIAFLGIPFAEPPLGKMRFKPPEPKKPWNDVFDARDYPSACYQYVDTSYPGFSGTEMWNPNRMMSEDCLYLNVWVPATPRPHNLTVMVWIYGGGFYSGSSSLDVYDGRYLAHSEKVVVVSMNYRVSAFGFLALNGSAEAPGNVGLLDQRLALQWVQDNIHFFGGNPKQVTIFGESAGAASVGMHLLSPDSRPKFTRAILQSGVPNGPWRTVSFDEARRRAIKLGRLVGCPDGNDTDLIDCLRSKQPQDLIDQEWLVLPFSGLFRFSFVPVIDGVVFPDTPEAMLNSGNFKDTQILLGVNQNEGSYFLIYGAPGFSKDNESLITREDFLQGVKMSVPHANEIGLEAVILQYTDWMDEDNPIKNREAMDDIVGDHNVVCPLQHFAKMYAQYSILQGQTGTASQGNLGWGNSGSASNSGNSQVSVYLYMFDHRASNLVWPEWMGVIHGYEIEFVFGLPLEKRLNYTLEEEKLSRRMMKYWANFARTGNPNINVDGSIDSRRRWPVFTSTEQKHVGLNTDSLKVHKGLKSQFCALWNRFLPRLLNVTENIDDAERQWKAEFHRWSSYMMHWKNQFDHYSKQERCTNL

A word on the IC50: it is the concentration at which inhibition is half-maximal. A lower IC50 goes with inhibition by little substance. `COc1ccc2c(c1)C(N1CCCC1=O)CC(c1cccc(C3CC(N4CCCC4=O)c4cc(OC)ccc4N3)c1)N2` (stereo not shown) [5c, 1,3-bis(6'-Methoxy-4'-(2-oxopyrrolidinyl-1)-1',2',3',4'-tetrahydroquinolin-2-yl)benzene] displayed a half-maximal inhibitory concentration (IC50) of 122 µM.
